According to patent publication US11154591B2, “Methods of treating alcohol abuse disorder” (THE TRUSTEES OF COLUMBIA UNIVERSITY IN THE CITY OF NEW YORK, priority 2016, dated 2021):

How the values were obtained:
male C57BL/6J mice = assay: Free-choice 10% ethanol vs water intake, Example 2; assay type: in vivo
Experimental: To test this hypothesis, 5 groups of 5 male C57BL/6J mice (25 total) were housed for 40 days in plastic cages with 2 water bottles each: one containing water and the other 10% ethanol in water (10% ethanol). Fluids were available “free choice”, and intake from each bottle was recorded daily.
Over the 1st week, 10% ethanol and water were consumed at a mean ratio of 0.80±0.32:1.0. Intake of 10% ethanol then increased, plateauing at a 10% ethanol:water ratio of 2.0±0.17:1.0 by Days 22-30. This was assigned a value of 100% as baseline for the subsequent studies. Starting on Day 31, 15 mice were injected with Spexin in 1×PBS 25 μg/kg in PBS i.p. daily for 3 days. Mice were administered the 14 amino acid Spexin peptide with carboxy terminal amidation: Asn-Trp-Thr-Pro-Gln-Ala-Met-Leu-Tyr-Leu-Lys-Gly-Ala-Gln-NH2 (SEQ ID NO: 4; available from Phoenix Pharmaceuticals, Catalog No. 023-81). The other 10 mice were injected with 1×PBS (vehicle) alone.

obese (DIO) mice = details: injected into obese (DIO) mice; cited from earlier work
C57BL/6J mice = assay: Free-choice 10% ethanol/water drinking, Example 1; assay type: in vivo
Source text: Animals (C57BL/6J mice) were offered two options for drinking water, one bottle with pure water, and the other bottle containing a 10% ethanol/water mix, both of which were available “free choice” from Day 1 of the experiment. […] In this experiment, as the mice became accustomed to the 10% ethanol mix offered, they began to drink more and more of the ethanol mix, so that when their liquid consumption was plotted as a ratio of 10% ethanol/water, the ratio quickly became greater than 1 (more 10% ethanol than pure water). The mice were allowed to establish a baseline consumption pattern, and after 30 Days, 5 cages consistently consumed more of the ethanol mix than pure water.
Beginning on Day 33, three cages were treated with Spexin at 25 micrograms/kg/day in 1×PBS; via IP injection (cages 1, 4, and 10). Mice were administered the 14 amino acid Spexin peptide with carboxy terminal amidation: Asn-Trp-Thr-Pro-Gln-Ala-Met-Leu-Tyr-Leu-Lys-Gly-Ala-Gln-NH2 (SEQ ID NO: 4; available from Phoenix Pharmaceuticals, Catalog No. 023-81). The other two cages (2 and 7) were injected with an equal volume of vehicle according to the same schedule. Animals were injected for 5 days (Days 33 through 37), then given two days off (Days 38 and 39), then injected again with Spexin for two more days (days 40 and 41). […]

rat stomach explant = details: cited from earlier work

Asn-Trp-Thr-Pro-Gln-Ala-Met-Leu-Tyr-Leu-Lys-Gly-Ala-Gln-NH2 [Spexin]
10% ethanol:water ratio, % of baseline (male C57BL/6J mice; 25 μg/kg i.p. daily, 1st day of Spexin administration, baseline ratio 2.0:1.0 = 100%): 80.7%
10% ethanol:water ratio, % of baseline (male C57BL/6J mice; 25 μg/kg i.p. daily, 2nd day of Spexin administration): 42.4%
10% ethanol:water ratio, % of baseline (male C57BL/6J mice; 25 μg/kg i.p. daily, 3rd day of Spexin administration): 42.4%
10% ethanol:water ratio, % of baseline (male C57BL/6J mice; 1st day post-Spexin): 100%
10% ethanol:water ratio, % of baseline (male C57BL/6J mice; 2nd day post-Spexin): 136%
ethanol intake (male C57BL/6J mice; daily spexin injections, free choice): rapidly & significantly reduce ethanol intake
weight loss (obese (DIO) mice): produces weight loss
ratio of 10% ethanol/water consumption (C57BL/6J mice; 25 micrograms/kg/day IP in 1xPBS, Days 33-37 and 40-41, cages 1, 4 and 10): dropped in all three cages
ratio of 10% ethanol/water consumption (C57BL/6J mice; 25 micrograms/kg/day IP, cages 4 and 10): below 1
contractile effects (rat stomach explant): demonstrates contractile effects
